# Assays:
# [1] = test system: murine breast carcinoma Walker 256/B; assay: antitumor activity in vivo against Walker 256/B implanted intratibia (TWI%); design: species or system murine tumor; male rats CD1; details: it/iv, days 1, 4, 7; for TWI % (tumor weight inhibition %): measured day 14; for Tox: Walker 256/B
# Description: The compounds of the invention have been tested "in vivo" against the murine breast carcinoma Walker 256/B implanted intratibia (it). After inoculation into the bone marrow cavity of the tibia, this tumor grows inside the bone causing osteolytic lesions, paraneoplastic hypercalcaemia and by invading the surrounding tissues it forms a measurable tumor mass. It is therefore possible to determine both the antitumor activity on the extraosseous tumor and the anti-osteolytic effect (Cancer, 72(1), 91 (1993)).
# The Walker 256/B tumor was provided by NCI Frederick Cancer Facility and was maintained in male rats CD1 by means of subcutaneous transplantation of tumor fragments of about 1 cm diameter every 10 days.
# To perform the experiment, each rat was injected it with 2.5×10^6tumor cells; all the animals were anesthetized with a mixture of 10 mg/kg of Ketalar (Park-Davis) and 5 mg/kg of Rompun (Bayer). After implantation inside the tibia, the tumor grows causing osteolytic lesions associated with an increased activity of the osteoclasts. To obtain an injectable cell suspension, the tumor fragments were decomposed by means of enzymatic digestion with type IV collagenases (Sigma) at a concentration of 400 U/ml for 20 minutes at 37° C.
# The compounds of the invention have been administered i.v. at days 1, 4 and 7 after the tumor transplantation. The extraosseous tumor mass has been measured at day 14 after tumor transplantation. The antitumor activity was determined as TWI% (tumor weight inhibition %) calculated according to the following formula:
# TWI%=(100-TW meantreated animals /TW meancontrols)×100
# wherein the TW for each animal is given by the formula: […]
# in which a and b are respectively the maximum and minimum diameter of the tumor mass, expressed in mm.
# [2] = test system: human multiple myeloma HS-Sultan cells; assay: experimental model of human multiple myeloma HS-Sultan, mean survival time; assay type: in vivo, human cells in SCID rats; details: iv/iv, days +15, 18, 21; for TMS (MST = Mean Survival Time in days from the tumor inoculation): controls: MST 33-37; for Tox: HS-Sultan
# Experimental: (§1) The experiment is performed by inoculating intravenously (i.v.) the human multiple myeloma HS-Sultan cells in SCID rats (immunodeficient rats) at day 0, followed by treatment i.v. with a compound of the invention at days 15, 18 and 21.
# The activity of the compounds of the invention was evaluated in relationship with the following parameters:
# Mean Survival Time (MST) in comparison with the not treated rats (which have a mean survival time of 30 days after tumor inoculation);
# [3] = test system: human multiple myeloma HS-Sultan cells; assay: histopathological examination of tumor infiltration in the human multiple myeloma model; assay type: in vivo, human cells in SCID rats; design: key to tumor infiltration score: -: absence of infiltration; +: slight infiltration; ++: middle to high infiltration; details: for tumor infiltration score: 38 days from the treatment; for effect on the tumor infiltration (in words): human multiple myeloma model
# Experimental: as §1
# evaluation of histological parameters (bone marrow invasion and degree of osteolytic lesions).
# [4] = test system: multiple myeloma; details: background statement; cited from earlier work
compound,measurement,setting,value
O=C(C=C(C(=O)O)C(P(=O)(O)O)P(=O)(O)O)NC(Cc1ccc(N(CCCl)CCCl)cc1)C(=O)O (stereo not drawn) [compound (B)],TWI % (tumor weight inhibition %),[1]; 20 mg/kg,89%
same,Tox,[1]; 20 mg/kg,0/8
same,TMS (MST = Mean Survival Time in days from the tumor inoculation),[2]; 60 mg/kg,70 days
same,Tox,[2]; 60 mg/kg,1/6
same,tumor infiltration score,"[3]; Backbone (soft tissues), (B) oO mg/kg",-
same,tumor infiltration score,"[3]; Backbone, (B) oO mg/kg",-
same,tumor infiltration score,"[3]; Hind limbs (soft tissues), (B) oO mg/kg",-
same,tumor infiltration score,"[3]; Hind limbs, (B) oO mg/kg",-
same,tumor infiltration score,"[3]; Kidneys, (B) oO mg/kg",+
same,tumor infiltration score,"[3]; Sternum, (B) oO mg/kg",-
same,effect on the tumor infiltration (in words),[3],selective inhibitory effect on the tumor infiltration
N[C@@H](Cc1ccc(N(CCCl)CCCl)cc1)C(=O)O [melphalan],TWI % (tumor weight inhibition %),[1]; 2.8 mg/kg,71%
same,Tox,[1]; 2.8 mg/kg,11/144
same,activity against the multiple myeloma (in words),[4],exploits activity against the multiple myeloma
same,cure of the secondary bone tumor (in words),[4],not able to cure the secondary bone tumor
same,TMS (MST = Mean Survival Time in days from the tumor inoculation),[2]; 6 mg/kg,59 days
same,Tox,[2]; 6 mg/kg,1/5
same,tumor infiltration score,"[3]; Backbone (soft tissues), melfalan 6 mg/kg",-
same,tumor infiltration score,"[3]; Backbone, melfalan 6 mg/kg",+
same,tumor infiltration score,"[3]; Hind limbs (soft tissues), melfalan 6 mg/kg",-
same,tumor infiltration score,"[3]; Hind limbs, melfalan 6 mg/kg",+
same,tumor infiltration score,"[3]; Kidneys, melfalan 6 mg/kg",-
same,tumor infiltration score,"[3]; Sternum, melfalan 6 mg/kg",+
same,effect on the tumor infiltration (in words),[3],cannot be seen

# — patent publication US6207655A, “Bis-phosphonate confugates with alkylating moieties having antitumor activity” (Novuspharma S.p.A., priority 1997, dated 2001)
